The values below come from patent US20200347148A1, “METHODS FOR ENHANCING AND MAINTAINING CAR-T CELL EFFICACY” (Bellicum Pharmaceuticals, Inc., priority 2017, published 2020).

The structures appear in SMILES notation. “Also recorded” adds a separate entry of the source.

For data set [1] the following is noted: Iuliucci J D, et al., J Clin Pharmacol. 2001; cited from earlier work.
Data set [2] deals with iC9 (inducible caspase-9) safety switch. Nature of the data set: Rimiducid activation of the iC9 safety switch in CAR-T-treated tumor-bearing NSG mice. The data set is classed as in vivo. As to the method: Animal Models. To evaluate anti-tumor activity of CD19-targeted CAR-T cells, NSG mice were engrafted with 5×10^5 CD19^+ Raji or Raji-EGFPluc tumor cells by intravenous (i.v.) tail vein injection. After 4 days, variable doses of non-transduced and gene-modified T cells were administered by i.v. (tail) injection. In some experiments, mice were rechallenged with Raji-EGFPluc […] as above. To test CD123-specific CAR-T activity, 1×10^6 CD123^+ THP-1-EGFPluc were engrafted by i.v. injection, followed by infusion of 2.5×10^6 unmodified or CAR-T cells 7 days post-tumor engraftment. iC9 titration experiments were performed by treating Raji tumor-bearing mice with 5×10^6 iC9-CD19.ζ-MC-modified T cells followed by injection of rimiducid 7 days after T cell injection at 0.00005, 0.0005, 0.005, 0.05, 0.5 and 5 mg/kg. To evaluate cytokine-related toxicities, neutralizing antibodies against hIL-6, hIFN-γ and TNF-α or an isotype control antibody (Bio X Cell, West Lebanon, N.H.) were administered by i.p. injection with 100 ug twice weekly. Additional experiments were performed using positively selected CD4^+ and CD8+ iC9-CD19.ζ-MC-modified T cells using CD4 or CD8 microbeads and MACS columns (Miltenyi Biotec). In vivo tumor growth and T cell proliferation was measured by bioluminescence imaging (BLI) by i.p. injection of 150 mg/kg D-luciferin (Perkin Elmer, Waltham, Mass.) and imaged using the IVIS imaging system (Perkin Elmer). Photon emission was analyzed by whole body region-of-interest (ROI) and signal measured as average radiance (photons/second/cm2/steradian).
While administration of high dose rimiducid (5 mg/kg) allowed the persistence of low level CAR-T cells, titration of rimiducid may permit the retention of more gene-modified T cells while mitigating cytokine-related toxicities. T cells were co-transduced with iC9-CD19.ζ-MC and EGFPluc and administered into Raji-bearing mice. Following the onset of cachexia (>10% body weight loss), a log-titration of rimiducid (5-5×10^−5 mg/kg) was administered as a single i.p. injection (FIG. 6A).
To further study cachexia associated with administration of iC9-CAR.-MC-modified T cells, the CD19-redirected construct was assayed against CD19^+ Daudi tumors in vivo, and neutralizing antibodies targeting human IL-6, IFN-γ and TNF-α, all of which are cross-reactive with murine cytokine receptors, were administered, and followed by monitoring of mouse weight loss. Here, tumor-bearing mice were treated with 5×10^6 iC9-CD19.ζ-MC transduced T cells and following >10% weight loss, intervention with either a single i.p. dose of rimiducid (0.5 mg/kg) or vehicle, or twice weekly injections of 100 ug per mouse anti-hIFN-γ, hIL-6 or hTNF-α was initiated (FIG. 9A). […] 5×10^6 iC9-CD19.ζ-MC-modified T cells were injected in to Daudi-bearing NSG mice and then treated with 0.5 mg/kg rimiducid after >10% weight loss or with i.p. injections with […] twice per week with an isotype antibody (control) or with neutralizing antibodies against human TNF-α, IL-6 and IFN-γ. Weight recovery was monitored until day 28. […] Thus, cytokine blockade provides a second effective mechanism to resolve the toxicity of this potent approach.

The mark [3] stands for this setting: Raji model, 24 hours post-rimiducid.

Take `CC[C@H](C(=O)N1CCCC[C@H]1C(=O)O[C@H](CCc1ccc(OC)c(OC)c1)c1cccc(OCC(=O)NCCNC(=O)COc2cccc([C@@H](CCc3ccc(OC)c(OC)c3)OC(=O)[C@@H]3CCCCN3C(=O)[C@@H](CC)c3cc(OC)c(OC)c(OC)c3)c2)c1)c1cc(OC)c(OC)c(OC)c1` (relative stereo) [rimiducid, 2-Piperidinecarboxylic acid, 1-[(2S)-1-oxo-2-(3,4,5-trimethoxyphenyl)butyl]-, 1,2-ethanediylbis[imino(2-oxo-2,1-ethanediyl)oxy-3,1-phenylene[(1R)-3-(3,4-dimethoxyphenyl)propylidene]] ester, [2S-[1(R*),2R*[S*[S*[1(R*),2R*]]]]]-(9CI)]: the “safety in healthy volunteers” value in data set [1] was “proven safe”. In addition, the “serum concentrations of hTNF-α” value in data set [2] (Daudi model, 0.5 mg/kg single i.p.) is on record as “significantly reduced”. Further, the “CAR-T BLI after rimiducid titration” value in data set [2] (Raji model, 5-5×10^−5 mg/kg single i.p.) is “reduced in a rimiducid dose-dependent manner”. In addition, in data set [2] (setting [3]), the “serum cytokine levels (IL-6, IFN-γ, TNF-α) after rimiducid titration” value is “decreased serum cytokine levels” and the “serum levels of human cytokines (IFN-γ, IL-6) after rimiducid” value is “reverted to baseline levels”. For the same molecule, the “resolution of CAR-related toxicity (weight loss)” value in data set [2] (Raji model, iC9-CD19.ζ-MC T cells, single 5 mg/kg i.p., 5 mg/kg) is “promptly resolved toxicity; also recorded: successfully resolved”. Besides, the resolution of cachexia result in data set [2] (THP-1 model, iC9-CD123.ζ-MC T cells, without affecting tumor control) is listed as “could be resolved”.
